Experimental data from ChEMBL document CHEMBL5728731, “Alkyl chain modified imidazoquinoline TLR7/8 agonist compounds and uses thereof” (2021).
pEC50: −log10 of the molar value.

Columns and labels:
Toll-like receptor 7 = biological target: T1, Toll-like receptor 7 (Homo sapiens, UniProt Q9NYK1); test: (§1) n Vitro Biological Assays: Plasmacytoid dendritic cell (pDC)—enriched peripheral blood mononuclear cells (PBMCs) were prepared from the blood of a series of human donors (3-5 donors/experiment). PBMCs were isolated using Ficoll-Paque Premium® (GE Healthcare, Chicago Ill.) using methods well known to those in the art. pDCs were magnetically isolated from the total recovered PBMC population using CD304 (BDCA-4/Neuropilin-1) microbeads (Miltenyi Biotec, San Diego Calif.), according to the manufacturer's instructions. Isolated pDCs were then added back to between 1 and 2×108 of the corresponding donor's PBMCs for relative enrichment of this cell type. […] Culture supernatants were collected and interferon-alpha (IFNα) protein levels were measured by ELISA (MabTech, Cincinnati Ohio), according to the manufacturer's instructions.Monocytes were magnetically isolated from PBMCs, prepared as described above, following labeling with CD14 microbeads (Miltenyi Biotec, San Diego Calif.), according to the manufacturer's instructions. […] Culture supernatants were collected and tumor necrosis factor alpha (TNFα) protein levels were measured by ELISA (MabTech, Cincinnati Ohio), according to the manufacturer's instructions.
T1 sequence (Q9NYK1 whole entry): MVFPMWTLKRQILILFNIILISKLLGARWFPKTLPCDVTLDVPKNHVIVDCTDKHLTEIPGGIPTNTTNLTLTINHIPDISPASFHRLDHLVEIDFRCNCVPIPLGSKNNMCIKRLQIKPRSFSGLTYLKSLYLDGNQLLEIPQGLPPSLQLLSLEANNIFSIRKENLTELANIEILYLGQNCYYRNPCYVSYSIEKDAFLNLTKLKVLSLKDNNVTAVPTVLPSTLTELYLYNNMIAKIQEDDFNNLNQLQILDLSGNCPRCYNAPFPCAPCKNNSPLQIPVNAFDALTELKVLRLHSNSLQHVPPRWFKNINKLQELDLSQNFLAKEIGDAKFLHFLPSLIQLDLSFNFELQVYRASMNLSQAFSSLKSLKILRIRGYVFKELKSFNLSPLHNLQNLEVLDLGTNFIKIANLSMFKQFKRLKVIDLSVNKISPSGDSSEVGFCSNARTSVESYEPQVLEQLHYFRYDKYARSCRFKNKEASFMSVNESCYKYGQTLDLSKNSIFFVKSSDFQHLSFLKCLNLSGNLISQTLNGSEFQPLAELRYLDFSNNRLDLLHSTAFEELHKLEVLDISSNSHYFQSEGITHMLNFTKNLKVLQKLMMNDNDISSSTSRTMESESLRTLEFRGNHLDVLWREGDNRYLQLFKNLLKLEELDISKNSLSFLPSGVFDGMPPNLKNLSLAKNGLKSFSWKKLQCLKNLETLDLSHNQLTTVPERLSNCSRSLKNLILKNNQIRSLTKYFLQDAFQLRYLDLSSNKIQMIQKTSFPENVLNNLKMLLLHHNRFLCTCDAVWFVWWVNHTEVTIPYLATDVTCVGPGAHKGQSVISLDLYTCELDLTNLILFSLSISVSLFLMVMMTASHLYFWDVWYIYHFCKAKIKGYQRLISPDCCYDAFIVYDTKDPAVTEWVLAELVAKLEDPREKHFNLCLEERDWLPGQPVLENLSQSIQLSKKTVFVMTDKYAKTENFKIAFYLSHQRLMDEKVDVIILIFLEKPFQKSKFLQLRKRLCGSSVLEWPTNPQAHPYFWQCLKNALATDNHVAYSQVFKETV

Toll-like receptor 8 = biological target: T2, Toll-like receptor 8 (Homo sapiens, UniProt Q9NR97); test: as §1
T2 sequence (Q9NR97 whole entry): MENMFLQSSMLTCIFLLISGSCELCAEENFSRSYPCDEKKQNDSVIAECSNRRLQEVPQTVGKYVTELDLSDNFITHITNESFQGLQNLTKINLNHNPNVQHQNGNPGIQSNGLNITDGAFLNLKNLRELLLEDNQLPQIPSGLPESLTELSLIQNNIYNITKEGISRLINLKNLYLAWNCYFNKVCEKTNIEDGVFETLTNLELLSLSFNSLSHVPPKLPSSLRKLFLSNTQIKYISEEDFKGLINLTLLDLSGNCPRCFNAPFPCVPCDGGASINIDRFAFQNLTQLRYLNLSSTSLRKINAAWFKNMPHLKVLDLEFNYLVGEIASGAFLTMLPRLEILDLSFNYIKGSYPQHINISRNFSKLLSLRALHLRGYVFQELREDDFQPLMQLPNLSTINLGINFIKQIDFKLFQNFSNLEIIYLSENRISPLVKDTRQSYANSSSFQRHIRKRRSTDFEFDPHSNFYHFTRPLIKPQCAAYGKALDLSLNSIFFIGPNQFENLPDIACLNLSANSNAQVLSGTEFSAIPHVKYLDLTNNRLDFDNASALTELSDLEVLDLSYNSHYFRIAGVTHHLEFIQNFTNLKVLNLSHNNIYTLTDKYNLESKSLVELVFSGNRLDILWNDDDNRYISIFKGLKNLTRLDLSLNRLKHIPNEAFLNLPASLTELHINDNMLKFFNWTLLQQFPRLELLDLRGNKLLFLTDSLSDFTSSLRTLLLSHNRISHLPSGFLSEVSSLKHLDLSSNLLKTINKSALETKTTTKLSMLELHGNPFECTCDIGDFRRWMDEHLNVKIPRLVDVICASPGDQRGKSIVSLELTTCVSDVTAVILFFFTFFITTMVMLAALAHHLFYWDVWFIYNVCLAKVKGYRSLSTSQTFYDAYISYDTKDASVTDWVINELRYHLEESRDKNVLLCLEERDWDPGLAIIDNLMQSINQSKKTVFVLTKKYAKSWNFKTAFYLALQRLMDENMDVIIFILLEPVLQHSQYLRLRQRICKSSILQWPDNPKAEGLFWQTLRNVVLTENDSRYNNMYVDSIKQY

| SMILES | pEC50 (Toll-like receptor 7) | pEC50 (Toll-like receptor 8) |
| --- | --- | --- |
| CCCCCC(=O)NCc1ccc(Cn2c(CCCC)nc3c(N)nc4ccccc4c32)cc1 | 7.96 | 5.67 |
| CCCCCCCCCCCCCCC(=O)NCc1ccc(Cn2c(CCCC)nc3c(N)nc4ccccc4c32)cc1 | 8.70 | 6.08 |
| CCCCCCCCCCCCCCCCCC(=O)NCc1ccc(Cn2c(CCCC)nc3c(N)nc4ccccc4c32)cc1 | 7.39 | 5.24 |
